We go through eight compounds from patent US12583866B2, “Pyrido[2,3-b][1,4]oxazines or tetrahydropyrido[2,3-b][1,4]oxazepines as IAP antagonists” (BEIGENE, LTD., priority 2020, dated 2026).

Structures can show the parent of a compound that is named as a salt.

Assay [1] concerns the target T1, recombinant human cIAP1-BIR3 protein (Homo sapiens, UniProt Q13490).
T1 construct: recombinant human cIAP1-BIR3 protein; purchased Reaction biology APT-11-370
As to the kind of experiment: Recombinant human c-IAP1-BIR3 biochemical assay (HTRF, peptide displacement). The note with it: 1.2 nM cIAP1-BIR3, 3 nM AbuRPF-K(5-Fam)-NH2 peptide, read-out: Protein binding IC50 (nM) c-IAP1. Here is the method: I. Recombinant human c-IAP1-BIR3 biochemical assay
(§1) Compounds disclosed herein were tested for blocking of recombinant human cIAP1-BIR3 protein (Cat: APT-11-370, Reaction biology) with its peptide in an assay based on Homogeneous Time Resolved Fluorescence. 1.2 nM recombinant human cIAP1-BIR3 protein was pre-incubated with a serial dilution of compounds disclosed herein (maximum concentration is 10 uM, 4-fold serially diluted, 10 points) at room temperature for 1 hour in an assay buffer containing 20 mM HEPES, pH 7.5, 50 mM NaCl, 0.005% Tween-20, 1 mM DTT. Then 3 nM AbuRPF-K (5-Fam)-NH2 (Cat: 709702, GL Biochem) was added to plate incubated at room temperature for 1 hour. Mab Anti-6His Tb cryptate Gold (Cat: 61HI2TLB, Cisbio Bioassays) was added to plate and further incubated at room temperature for 1 hour. The HTRF signals (ex337 nm, em520 nm/490 nm) were read on BMG PHERAstar FS instrument. The inhibition percentage of cIAP1-BIR3 interaction with its peptide in presence of increasing concentrations of compounds was calculated based on the ratio of fluorescence at 520 nm to that at 490 nm. The IC50 for each compound was derived from fitting the data to the four-parameter logistic equation by Dotmatics and summarized in table 1.
(TR-FRET usually uses a lanthanide donor and a delayed reading to cut background.)

Assay [2] concerns the target T2, recombinant human cIAP2-BIR3 protein (Homo sapiens, UniProt Q13489).
T2 construct: recombinant human cIAP2-BIR3 protein; purchased Reaction biology APT-11-372
As to the kind of experiment: Recombinant human c-IAP2-BIR3 biochemical assay (HTRF, peptide displacement). The settings on record: 3.7 nM cIAP2-BIR3, 3.7 nM AbuRPF-K(5-Fam)-NH2 peptide, read-out: Protein binding IC50 (nM) c-IAP2. Here is the method: II. Recombinant Human c-IAP2-BIR3 Biochemical Assay
as §1, with “human cIAP2-BIR3” for “human cIAP1-BIR3”, “(Cat: APT-11-372,” for “(Cat: APT-11-370,”, “Fluorescence. 3.7” for “Fluorescence. 1.2”, “Then 3.7” for “Then 3”, “nM AbuRPF-K(5-Fam)-NH2” for “nM AbuRPF-K (5-Fam)-NH2”, “of cIAP2-BIR3” for “of cIAP1-BIR3”

In assay [3] the target is T3, recombinant human XIAP-BIR3 protein (Homo sapiens, UniProt P98170).
T3 construct: recombinant human XIAP-BIR3 protein; purchased Reaction biology APT-11-374
As to the kind of experiment: Recombinant human XIAP-BIR3 biochemical assay (HTRF, peptide displacement). The settings on record: 3.7 nM XIAP-BIR3, 7.6 nM AbuRPF-K(5-Fam)-NH2 peptide, read-out: Protein binding IC50 (nM) XIAP. Here is the method: III. Recombinant Human XIAP-BIR3 Biochemical Assay
as §1, with “human XIAP-BIR3” for “human cIAP1-BIR3”, “(Cat: APT-11-374,” for “(Cat: APT-11-370,”, “Fluorescence. 3.7” for “Fluorescence. 1.2”, “Then 7.6” for “Then 3”, “nM AbuRPF-K(5-Fam)-NH2” for “nM AbuRPF-K (5-Fam)-NH2”, “of XIAP-BIR3” for “of cIAP1-BIR3”

T2 sequence (Q13489 238-349 limits assumed): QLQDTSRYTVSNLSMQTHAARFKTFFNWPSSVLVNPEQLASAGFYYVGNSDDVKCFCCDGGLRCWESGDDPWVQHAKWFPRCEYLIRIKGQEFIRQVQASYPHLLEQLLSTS
T1 sequence (Q13490 253-363 limits assumed): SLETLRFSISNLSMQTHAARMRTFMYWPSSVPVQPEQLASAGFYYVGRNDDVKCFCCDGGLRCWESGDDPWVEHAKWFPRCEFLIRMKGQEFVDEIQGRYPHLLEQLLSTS
T3 sequence (P98170 241-356 limits assumed): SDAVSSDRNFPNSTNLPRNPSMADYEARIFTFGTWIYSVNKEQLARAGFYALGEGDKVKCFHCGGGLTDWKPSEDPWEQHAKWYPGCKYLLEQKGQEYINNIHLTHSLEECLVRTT

The term IC50 denotes the concentration that inhibits the measured activity by half. On to `C[C@@H]1CN(CC(=O)N2CCOc3nc(C#N)c(Cc4ccc(F)cc4)cc32)[C@@H](CN2CCOC[C@H]2C)CN1` [Compound 1, 7-(4-fluorobenzyl)-1-(2-((2R,5R)-5-methyl-2-(((R)-3-methylmorpholino)methyl)piperazin-1-yl)acetyl)-2,3-dihydro-1H-pyrido[2,3-b][1,4]oxazine-6-carbonitrile formate], for which the IC50 in assay [1] was 0.5 nM; in assay [2], 0.9 nM; in assay [3] it was 26 nM.
Turning to `C[C@@H]1CN(CC(=O)N2CCOc3ncc(Cc4ccc(F)cc4)cc32)[C@@H](CN2CCOC[C@H]2C)CN1` [Compound 2, 1-(7-(4-fluorobenzyl)-2,3-dihydro-1H-pyrido[2,3-b][1,4]oxazin-1-yl)-2-((2R,5R)-5-methyl-2-(((R)-3-methylmorpholino)methyl)piperazin-1-yl)ethan-1-one formate], the IC50 in assay [1] stood at 0.9 nM; in assay [2], 2.5 nM; in assay [3], 24 nM.
For `C[C@@H]1CN(CC(=O)N2CCOc3nc(C(N)=O)c(Cc4ccc(F)cc4)cc32)[C@@H](CN2CCOC[C@H]2C)CN1` [Compound 3, 7-(4-fluorobenzyl)-1-(2-((2R,5R)-5-methyl-2-(((R)-3-methylmorpholino)methyl)piperazin-1-yl)acetyl)-2,3-dihydro-1H-pyrido[2,3-b][1,4]oxazine-6-carboxamide formate], in that order: 1.5 nM, 3.2 nM and 23 nM.
In the case of `C[C@@H]1CN(CC(=O)N2CCOc3nc(Br)c(Cc4ccc(F)cc4)cc32)[C@@H](CN2CCOC[C@H]2C)CN1` [Compound 4, 1-(6-bromo-7-(4-fluorobenzyl)-2,3-dihydro-1H-pyrido[2,3-b][1,4]oxazin-1-yl)-2-((2R,5R)-5-methyl-2-(((R)-3-methylmorpholino)methyl)piperazin-1-yl)ethan-1-one], the IC50 in assay [1] stood at 0.5 nM; in assay [2] it was 0.92 nM; in assay [3] it was 17 nM.
Take `Cc1nc2c(cc1Cc1ccc(F)cc1)N(C(=O)CN1C[C@@H](C)NC[C@@H]1CN1CCOC[C@H]1C)CCO2` [Compound 5, 1-(7-(4-fluorobenzyl)-6-methyl-2,3-dihydro-1H-pyrido[2,3-b][1,4]oxazin-1-yl)-2-((2R,5R)-5-methyl-2-(((R)-3-methylmorpholino)methyl)piperazin-1-yl)ethan-1-one]: the values for the IC50 in assay [1], in assay [2] and in assay [3] were 0.7 nM, 1.1 nM and 18 nM, respectively.
The corresponding values for `C[C@@H]1CN(CC(=O)N2CCOc3nc(C4CC4)c(Cc4ccc(F)cc4)cc32)[C@@H](CN2CCOC[C@H]2C)CN1` [Compound 6, 1-(6-cyclopropyl-7-(4-fluorobenzyl)-2,3-dihydro-1H-pyrido[2,3-b][1,4]oxazin-1-yl)-2-((2R,5R)-5-methyl-2-(((R)-3-methylmorpholino)methyl)piperazin-1-yl)ethan-1-one] are 1.1 nM, 3 nM and 61 nM.
For `C[C@@H]1CN(CC(=O)N2CCOc3nc(C(F)(F)F)c(Cc4ccc(F)cc4)cc32)[C@@H](CN2CCOC[C@H]2C)CN1` [Compound 7, 1-(7-(4-fluorobenzyl)-6-(trifluoromethyl)-2,3-dihydro-1H-pyrido[2,3-b][1,4]oxazin-1-yl)-2-((2R,5R)-5-methyl-2-(((R)-3-methylmorpholino)methyl)piperazin-1-yl)ethan-1-one], in that order: 1.3 nM, 6.8 nM and 99 nM.
For `C[C@@H]1CN(CC(=O)N2CCOc3nc(CO)c(Cc4ccc(F)cc4)cc32)[C@@H](CN2CCOC[C@H]2C)CN1` [Compound 8, 1-(7-(4-fluorobenzyl)-6-(hydroxymethyl)-2,3-dihydro-1H-pyrido[2,3-b][1,4]oxazin-1-yl)-2-((2R,5R)-5-methyl-2-(((R)-3-methylmorpholino)methyl)piperazin-1-yl)ethan-1-one], in that order: 1 nM, 2.9 nM and 45 nM.
